One experiment relates to DLD-1 BRCA2−/− cells. The experiment can be described thus: Homologous recombination synthetic lethal inhibition of proliferation, DLD-1 BRCA2-/- (Cell Titre Glo 3D). As to conditions: DLD-1 BRCA2−/− cells, 12 days. It is filed as cell-based. The method in brief:
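DLD-1 BRCA2−/− (3,000 cells/mL) and parental DLD-1 (1,500 cells/mL) cells in phenol red-free RPMI 1640 with 10% FBS were exposed to a 10-point, three-fold compound series from 10 μM to 0.51 nM at 37 °C, 5% CO2. Medium and compound were replenished on day 6. CellTiter-Glo 3D luminescence was read on day 7 (DLD-1) or day 12 (BRCA2−/−), and IC50 was taken as 50% reduction of maximum signal.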
Regarding `CC1NCCN(CCOc2ccc(-c3nc4c(OC5(C)CC5)ncnc4n3Cc3ccccc3)c(Cl)c2)C1=O` (single isomer, unassigned; isomer 2) [Example R14, 1-(2-(4-(9-benzyl-6-(1-methylcyclopropoxy)-9H-purin-8-yl)-3-chlorophenoxy)ethyl)-3-methylpiperazin-2-one (Isomer 2)], the “POLQ PD Prolif Lumin BRCA2 −/− mean pIC50” value is 6.8.

The experiment is the same for the next values; noted with them: Homo sapiens, DLD-1, 288 h, DLD-1 BRCA2−/− cells, 12 days; read-out: POLQ PD Prolif Lumin BRCA2 −/− mean pIC50 (converted).
`CC1(Oc2ncnc3c2nc(-c2ccc(OCCNC(=O)CO)cc2Cl)n3Cc2ccccc2)CC1` [Example D26, N-(2-(4-(9-benzyl-6-(1-methylcyclopropoxy)-9H-purin-8-yl)-3-chlorophenoxy)ethyl)-2-hydroxyacetamide]: the IC50 is 100 nM.

With `CC(Cc1ccccn1)n1c(-c2ccc(OCCN3CCNCC3)cc2Cl)nc2c(OC3(C)CC3)ncnc21` (single isomer, unassigned) [Example S7, 8-(2-chloro-4-(2-(piperazin-1-yl)ethoxy)phenyl)-6-(1-methylcyclopropoxy)-9-(1-(pyridin-2-yl)propan-2-yl)-9H-purine], the IC50 was 6310 nM.

The same experiment, now with this note: Homo sapiens, DLD-1, DLD-1 BRCA2-/- proliferation; column head only partly shown; read-out: POLQ PD Prolif Lumin (converted).
For the compound `Cc1ccnc(Cn2c(-c3ccc(NCCN(C)C)cc3Cl)nc3c(OC4(C)CC4)ncnc32)c1` [Example T247, N1-(3-chloro-4-(6-(1-methylcyclopropoxy)-9-((4-methylpyridin-2-yl)methyl)-9H-purin-8-yl)phenyl)-N2,N2-dimethylethane-1,2-diamine], the IC50 was 501 nM.

For `Cc1ccnc(Cn2c(-c3ccc(C(=O)NC(C)C)cc3Cl)nc3c(OC4(C)CC4)ncnc32)c1` [Example T211, 3-chloro-N-isopropyl-4-(6-(1-methylcyclopropoxy)-9-((4-methylpyridin-2-yl)methyl)-9H-purin-8-yl)benzamide], the IC50 was 501 nM.

On to `CC(CCOc1ccc(-c2nc3c(OC4(C)CC4)ncnc3n2Cc2cccc(Cl)c2F)c(Cl)c1)C(=O)O` (racemic) [Example T267, 4-(3-chloro-4-(9-(3-chloro-2-fluorobenzyl)-6-(1-methylcyclopropoxy)-9H-purin-8-yl)phenoxy)-2-methylbutanoic acid], for which the IC50 is 398 nM.

With `Cc1ccnc(Cn2c(-c3ccc(OCC(=O)NCCO)cc3Cl)nc3c(OC4(C)CC4)ncnc32)c1` [Example T226, 2-(3-chloro-4-(6-(1-methylcyclopropoxy)-9-((4-methylpyridin-2-yl)methyl)-9H-purin-8-yl)phenoxy)-N-(2-hydroxyethyl)acetamide], the IC50 was 158 nM.

Staying with this experiment, now noted: Homo sapiens, DLD-1, DLD-1 BRCA2 −/− cells; mean; read-out: POLQ PD Prolif Lumin BRCA2 −/− mean pIC50 (converted).
In the case of `CC1(Oc2ncnc3c2nc(-c2ccc(OCCC(=O)O)cc2Cl)n3Cc2ccc(Cl)c(Cl)c2)CC1` [Example T84, 3-(3-chloro-4-(9-(3,4-dichlorobenzyl)-6-(1-methylcyclopropoxy)-9H-purin-8-yl)phenoxy)propanoic acid], the IC50 is 2000 nM.

Turning to `Cc1cc(Cn2c(-c3ccc(CC(N)=O)cc3Cl)nc3c(OC4(C)CC4)ncnc32)ccn1` [Example T58, 2-(3-chloro-4-(6-(1-methylcyclopropoxy)-9-((2-methylpyridin-4-yl)methyl)-9H-purin-8-yl)phenyl)acetamide], the IC50 was greater than 10000 nM.

Consider `COc1ccnc(Cn2c(-c3ccc(CC(N)=O)cc3Cl)nc3c(OC4(C)CC4)ncnc32)c1` [Example T63, 2-(3-chloro-4-(9-((4-methoxypyridin-2-yl)methyl)-6-(1-methylcyclopropoxy)-9H-purin-8-yl)phenyl)acetamide], for which the IC50 is 1000 nM.

For the compound `Cc1ccnc(Cn2c(-c3ccc(OCC(F)F)cc3Cl)nc3c(OC4(C)CC4)ncnc32)c1` [Example T47, 8-(2-chloro-4-(2,2-difluoroethoxy)phenyl)-6-(1-methylcyclopropoxy)-9-((4-methylpyridin-2-yl)methyl)-9H-purine], the IC50 is 200 nM.

As to `CC1(Oc2ncnc3c2nc(-c2ccc(CC(N)=O)cc2Cl)n3Cc2cncc(C#N)c2)CC1` [Example T39, 2-(3-chloro-4-(9-((5-cyanopyridin-3-yl)methyl)-6-(1-methylcyclopropoxy)-9H-purin-8-yl)phenyl)acetamide], the IC50 was 6310 nM.

Staying with this experiment, now noted: Homo sapiens, DLD-1, DLD-1 BRCA2 −/−, mean; read-out: POLQ PD Prolif Lumin BRCA2 −/− mean pIC50 (converted).
On to `CC(CCOc1ccc(-c2nc3c(OC4(C)CC4)ncnc3n2Cc2cccc(F)c2)c(Cl)c1)C(=O)O` (racemic) [Example U6, 4-(3-chloro-4-(9-(3-fluorobenzyl)-6-(1-methylcyclopropoxy)-9H-purin-8-yl)phenoxy)-2-methylbutanoic acid], for which the IC50 is 251 nM.

Staying with this experiment, now noted: Homo sapiens, DLD-1, first proliferation column (c5), taken as DLD-1 BRCA2-/-; read-out: POLQ PD Prolif Lumin (converted).
Regarding `Cc1ccnc(Cn2c(-c3ccc(C(=O)N(C)C4COC4)cc3Cl)nc3c(OC4(C)CC4)ncnc32)c1` [Example T320, 3-chloro-N-methyl-4-(6-(1-methylcyclopropoxy)-9-((4-methylpyridin-2-yl)methyl)-9H-purin-8-yl)-N-(oxetan-3-yl)benzamide], the IC50 is 3160 nM.

As to `Cc1ccnc(Cn2c(-c3ccc(OCC(=O)NC[C@H](C)F)cc3Cl)nc3c(OC4(C)CC4)ncnc32)c1` [Example T327, (S)-2-(3-chloro-4-(6-(1-methylcyclopropoxy)-9-((4-methylpyridin-2-yl)methyl)-9H-purin-8-yl)phenoxy)-N-(2-fluoropropyl)acetamide], the IC50 was 200 nM.

The experiment is the same for the next values; noted with them: Homo sapiens, DLD-1, first proliferation column (c5); DLD-1 BRCA2-/-; read-out: POLQ PD Prolif Lumin (converted).
Regarding `Cc1ccnc(Cn2c(-c3ccc(OCC(=O)N4CCC[C@H]4C#N)cc3Cl)nc3c(OC4(C)CC4)ncnc32)c1` [Example T539, (S)-1-(2-(3-chloro-4-(6-(1-methylcyclopropoxy)-9-((4-methylpyridin-2-yl)methyl)-9H-purin-8-yl)phenoxy)acetyl)pyrrolidine-2-carbonitrile], the IC50 was 316 nM.

As to `CC1(Oc2ncnc3c2nc(-c2ccc(CCCC(=O)O)cc2Cl)n3Cc2cccc(Cl)c2)CC1` [Example T155, 4-(3-chloro-4-(9-(3-chlorobenzyl)-6-(1-methylcyclopropoxy)-9H-purin-8-yl)phenyl)butanoic acid], the IC50 was 631 nM.

Take `CC1(Oc2ncnc3c2nc(-c2cccc(OCCOCC(=O)O)c2Cl)n3Cc2cccc(Cl)c2)CC1` [Example T162, 2-(2-(2-chloro-3-(9-(3-chlorobenzyl)-6-(1-methylcyclopropoxy)-9H-purin-8-yl)phenoxy)ethoxy)acetic acid]: the IC50 was 126 nM.

Take `COc1ccc(Cn2c(-c3ccc(CC(N)=O)cc3Cl)nc3c(OC4(C)CC4)ncnc32)cc1` [Example T106, 2-(3-chloro-4-(9-(4-methoxybenzyl)-6-(1-methylcyclopropoxy)-9H-purin-8-yl)phenyl)acetamide]: the IC50 was 631 nM.

For `Cc1ccnc(Cn2c(-c3ccc(N4CC(O)C4)cc3Cl)nc3c(OC4(C)CC4)ncnc32)c1` [Example T115, 1-(3-chloro-4-(6-(1-methylcyclopropoxy)-9-((4-methylpyridin-2-yl)methyl)-9H-purin-8-yl)phenyl)azetidin-3-ol], the IC50 is 200 nM.

The experiment is the same for the next values; noted with them: Homo sapiens, DLD-1, first proliferation column; DLD-1 BRCA2-/-; read-out: POLQ PD Prolif Lumin (converted).
Turning to `CO[C@H]1CCN(C(=O)COc2ccc(-c3nc4c(OC5(C)CC5)ncnc4n3Cc3cc(C)ccn3)c(Cl)c2)C1` [Example T577, (S)-2-(3-chloro-4-(6-(1-methylcyclopropoxy)-9-((4-methylpyridin-2-yl)methyl)-9H-purin-8-yl)phenoxy)-1-(3-methoxypyrrolidin-1-yl)ethan-1-one], the IC50 is 398 nM.

As for `Cc1ccnc(Cn2c(-c3ccc(OCCN4CCN(C)CC4)cc3Cl)nc3c(OC(C)(C)C)nccc32)c1` [Example T610, 4-(tert-butoxy)-2-(2-chloro-4-(2-(4-methylpiperazin-1-yl)ethoxy)phenyl)-1-((4-methylpyridin-2-yl)methyl)-1H-imidazo[4,5-c]pyridine], the IC50 is greater than 7940 nM.

Staying with this experiment, now noted: Homo sapiens, DLD-1, proliferation, luminescence, taken as DLD-1 BRCA2-/-; read-out: POLQ PD Prolif Lumin (converted).
For `Cc1ccnc(Cn2c(-c3ccc(OCC(=O)NC4CC(F)C4)cc3Cl)nc3c(OC4(C)CC4)ncnc32)c1` (stereo not drawn) [Example T421, 2-(3-chloro-4-(6-(1-methylcyclopropoxy)-9-((4-methylpyridin-2-yl)methyl)-9H-purin-8-yl)phenoxy)-N-(3-fluorocyclobutyl)acetamide], the IC50 was 251 nM.

For the compound `Cc1ccnc(Cn2c(-c3ccc(OCC(=O)N4CC(C)(O)C4)cc3Cl)nc3c(OC4(C)CC4)ncnc32)c1` [Example T477, 2-(3-chloro-4-(6-(1-methylcyclopropoxy)-9-((4-methylpyridin-2-yl)methyl)-9H-purin-8-yl)phenoxy)-1-(3-hydroxy-3-methylazetidin-1-yl)ethan-1-one], the IC50 was 1260 nM.

On to `Cc1ccnc(Cn2c(-c3ccc(C(=O)N4CC[C@@H](C#N)C4)cc3Cl)nc3c(OC4(C)CC4)ncnc32)c1` [Example T405, (R)-1-(3-chloro-4-(6-(1-methylcyclopropoxy)-9-((4-methylpyridin-2-yl)methyl)-9H-purin-8-yl)benzoyl)pyrrolidine-3-carbonitrile], for which the IC50 is 1260 nM.

With `Cc1ccnc(Cn2c(-c3ccc(OCC(=O)N4CCCC4)cc3Cl)nc3c(OC4(C)CC4)ncnc32)c1` [Example T467, 2-(3-chloro-4-(6-(1-methylcyclopropoxy)-9-((4-methylpyridin-2-yl)methyl)-9H-purin-8-yl)phenoxy)-1-(pyrrolidin-1-yl)ethan-1-one], the IC50 was 316 nM.

Take `CC(C)(COc1ccc(-c2nc3c(OC4(C)CC4)ncnc3n2Cc2cccc(Cl)c2)c(Cl)c1)CC(=O)O` [Example T436, 4-(3-chloro-4-(9-(3-chlorobenzyl)-6-(1-methylcyclopropoxy)-9H-purin-8-yl)phenoxy)-3,3-dimethylbutanoic acid]: the IC50 was 200 nM.

(Values after patent publication US20250195530A1, “POLQ INHIBITORS” (ASTRAZENECA AB, priority 2022, published 2025).)
